Laboratory results reported in patent US20230346827A1 (priority 2020, published 2023).

System: Human Schwann cells
Test: Gene expression array and pathway analysis, Schwann cells, LMW-DS 0.01 mg/ml 48 h
Assay type: cell-based
Settings: for number of genes: abolished nutrient effect / number of genes: total / number of genes: enhanced response to nutrients / number of genes: new effect induced by LMW-DS / number of genes: not different from control / Activation z-score / Predicted activation state relative D2 control: Schwann cells; for Activation z-score / Predicted activation state relative D2 control: D2 LMW-DS treatment
Method: For each cell line, n=8 × 25 cm^2 culture flasks were set up. Two flasks were harvested for each cell type on the day of treatment (24 hours after seeding). This represents the Day0 time point. From the remaining flasks, three flasks were treated with Control Medium and three were treated with Culture Medium (CM) containing LMW-DS to give a final concentration of 0.01 mg/ml. Cells from the treated flasks were collected after 48 hours. Therefore the collected data represent (a) untreated cells (Day0 Controls and Day2 Controls) and (b) cells treated with LMW-DS (ILB®, Tikomed AB, Viken, Sweden, WO 2016/076780) for 48 hours (Day2 LMW-DS treated).
Schwann cells growth medium was prepared by adding 10% of fetal bovine serum (FBS) to high-glucose DMEM and pre-warmed to 37° C. Cells were thawed in a 37° C. water bath for no longer than 2 min.
Cells from 12 vials were each gently transferred to a tube containing 10 ml of high-glucose DMEM medium and centrifuged at 400 relative centrifugal field (RCF) for 10 min. Pellet was re-suspended in culture medium. The cells from the 12 vials were mixed and distributed equally into the previously coated 25 cm^2 flasks (n=8). Cells were incubated at 37° C. with 5% CO2. Cells were allowed to settle for 24 hours before LMW-DS treatment.
LMW-DS was provided at a stock concentration of 20 mg/ml and was kept in a temperature monitored refrigerator at 4° C. A fresh 100x LMW-DS stock (1.0 mg/ml) was prepared in sterile DMEM-F12. The concentrated drug stock was sterile filtered and added to the respective culture media (19.6 ml CM and 0.4 ml LMW-DS stock solution). The Control was made using 19.6 ml CM and 0.4 ml of DMEM-F12. LMW-DS and CM were added to the respective flasks (5 ml each) to reach the 0.01 mg/ml concentration of LMW-DS in each dish with a total of 10 ml CM each.
CM was aspirated into a clean and labelled 15 ml Falcon tube. The flasks (without culture medium) were placed into the -80° C. freezer for 30 minutes. The CM in the Falcon tubes was spun at 3000 x g for 5 minutes. Supernatant was removed and the small pellet was re-suspended in 2.5 ml Trizol:Water (4:1) solution at room temperature (RT, ~22° C.).
Two aliquots of 1 ml lysate were removed from each sample and 200 µl of chloroform was added to each (0.2 ml of chloroform per 1 ml of TRIzol Reagent used during the cell lysis step) and the tube was shaken vigorously. Samples were stored at RT for 2-3 minutes and subsequently centrifuged at 12,000 x g for 15 minutes at 4° C.
The RNA was precipitated from the aqueous phase by adding an equal amount of 100% ethanol. The precipitated RNA was fixed onto a Spin Cartridge, washed twice and dried. The RNA was eluted in 50 µl warm RNase-Free Water. The amount and quality of the purified RNA was measured by Nanodrop. The RNA was stored at -80° C. before transfer to Source Bioscience for Array analysis.
The expression data were downloaded into separate files for each cell line. The ‘Background corrected’ expression is the data from the “gProcessedSignal” of the arrays that is the result of the background signal extracted from the actual signal of the relevant probe. This is the most often used variable in array analysis. The background corrected signal was log2 transformed for all samples for statistical analysis. To reduce the false discovery rate in the samples, the signals that were below ‘expression level’ were removed. The ‘below expression’ level was set at 5 for the log2 transformed expression values.
Based on the expression pattern of the Control probes on each array it was decided to carry out Median Centering for all arrays before analysis to reduce the variability of the results. […]

[1] = pathway analysis of gene expression
[2] = upstream regulator HGF (from line above)

Substance: sodium salt of dextran sulfate [LMW-DS]
- attachment-related molecules differentially expressed: 17
- number of differentially expressed genes (D0 control to D2 LMW-DS treated): 1244
- number of differentially expressed genes (D2 control to D2 LMW-DS treated): 700
- number of genes: abolished nutrient effect (no effect): 21
- number of genes: total (no effect): 21
- number of genes: abolished nutrient effect (significant downregulation): 1
- number of genes: enhanced response to nutrients (significant downregulation): 122
- number of genes: new effect induced by LMW-DS (significant downregulation): 352
- number of genes: not different from control (significant downregulation): 42
- number of genes: total (significant downregulation): 517
- number of genes: abolished nutrient effect (significant upregulation): 13
- number of genes: enhanced response to nutrients (significant upregulation): 441
- number of genes: new effect induced by LMW-DS (significant upregulation): 74
- number of genes: not different from control (significant upregulation): 373
- number of genes: total (significant upregulation): 901
- number of genes: abolished nutrient effect (total): 35
- number of genes: enhanced response to nutrients (total): 563
- number of genes: new effect induced by LMW-DS (total): 426
- number of genes: not different from control (total): 415
- number of genes: total (total): 1439
- TGFβ-induced effect in adhesion of immune cells, activation and aggregation of cells, fibrosis, self-activation of TGFβ (molecular network analysis): totally abolished
- Complex III (cytochrome bc1) [1]: inhibited
- activity and/or levels of glutamate transporters (SLC1A2/3) [1]: increased
- genes altered in Control cultures with no changes in LMW-DS treated cultures (two days): 21
- genes downregulated by growth factors, downregulation stronger with LMW-DS (two days): 122
- genes downregulated in control cultures, upregulated in LMW-DS treated cultures (two days): 13
- genes increased in control cultures, downregulated in LMW-DS treated cultures (two days): 1
- genes upregulated in Control cultures, upregulation stronger with LMW-DS (two days): 441
- Activation z-score (upstream regulator ANGPT2): 1.283
- Predicted activation state relative D2 control (upstream regulator ANGPT2): Activated
- Activation z-score (upstream regulator BMP2): 1.395
- Predicted activation state relative D2 control (upstream regulator BMP2): Activated
- Activation z-score (upstream regulator BMP4): 0.927
- Predicted activation state relative D2 control (upstream regulator BMP4): Activated
- Activation z-score (upstream regulator BMP7): 1.86
- Predicted activation state relative D2 control (upstream regulator BMP7): Activated
- Activation z-score (upstream regulator EGF): 2.059
- Predicted activation state relative D2 control (upstream regulator EGF): Activated
- Activation z-score (upstream regulator FGF2): 2.37
- Predicted activation state relative D2 control (upstream regulator FGF2): Activated
- Activation z-score (upstream regulator GDF2): 2.561
- Predicted activation state relative D2 control (upstream regulator GDF2): Activated
- Activation z-score [2]: 1.432
- Predicted activation state relative D2 control [2]: Activated
- Activation z-score (upstream regulator IGF1): 1.332
- Predicted activation state relative D2 control (upstream regulator IGF1): Activated
- Activation z-score (upstream regulator NRG1): 1.768
- Predicted activation state relative D2 control (upstream regulator NRG1): Activated
- Activation z-score (upstream regulator NRTN): 0.958
- Predicted activation state relative D2 control (upstream regulator NRTN): Activated
- Activation z-score (upstream regulator PGF): 0.254
- Predicted activation state relative D2 control (upstream regulator PGF): Activated
- Activation z-score (upstream regulator TGFβ1): 1.05
- Predicted activation state relative D2 control (upstream regulator TGFβ1): Less inhibited
- Activation z-score (upstream regulator VEGFA): 3.4
- Predicted activation state relative D2 control (upstream regulator VEGFA): Activated
- Activation z-score (upstream regulator WISP2): -0.896
- Predicted activation state relative D2 control (upstream regulator WISP2): Less inhibited
